Reference: ChEMBL document CHEMBL3430912, “GSK Tres Cantos Anti-Kinetoplastid Screening (TCAKS) Data”

Tests used:
Trypanosoma cruzi [1] = assay: GSK_TCAKS: pIC50 Trypanosoma cruzi viability assay using beta-GAL activity. This assay was run at single shot at 5uM compound concentration per well. The biological reagents consisted of NIH-3T3 host cells and trypomastigotes parasitic cells; both cell types were set to a 3.3 * 10^5 cells/mL dilution in assay DMEM by means of a CASY cell counter device using a 60um capillary. 6 uL of the mixture were dispensed per well (about 1 * 10^3 host-cells and 1 * 10^3 parasites) with a Multidrop Combi dispenser. […] In all wells, the percentage of DMSO never exceeded 0.5%. Plates incubated for four days at 37C, 5% CO2. The substrate used for the assay fluorescence intensity (FLINT) readout was resorufin-beta-D-galactopiranoside (Sigma-Aldrich) at 5uM per well. It was diluted in PBS supplemented with the soft detergent Igepal (Fluka).; type: functional, organism-based, Mus musculus; conditions: Tulahuen, NIH3T3
Trypanosoma cruzi [2] = assay: (§1) GSK_TCAKS: pIC50 Trypanosoma cruzi Imaging: Infected Cells. […] Cells were then washed once with PBS before infection. T. cruzi trypomastigotes, collected at days 5 to 8 after infection from LLC-MK2 parasite infected cultures, were allowed to swim out for 4h at 37C from a centrifuged pellet (2,500 rpm/10 min/room temperature). Trypomastigotes were then collected and counted in a CASY Cell Counter. Trypomastigotes, in supplemented DMEM, were added to H9c2 cultures in a multiplicity of infection of 1 and incubated for 18 h. Cells were washed once with PBS before incubation of the infected H9c2 monolayer with trypsin (Life-Technologies) to detach cells from the flask. Cells were counted in a CASY Cell Counter using a 150 um capillary and their density set at 5 * 10^4 cells per mL in supplemented assay DMEM. Infected H9c2 were dispensed into 384-well poly-lysine coated assay plates at 50uL per well using a Multidrop Combi dispenser. After seeding them, the plates were incubated at 37C, 5% CO2 for 72h. Cultures were then fixed and stained by addition of 50 uL of a solution containing 8% formaldehyde and 4 uM DRAQ5 DNA dye (BioStatus, UK) per well. […] Five images were collected per well for reliable statistical analysis. Automated image analysis was performed with a script developed on Acapella High Content Imaging and Analysis Software (PerkinElmer). Output: percentage of infected cells per well as a second infection marker.; type: functional, organism-based, Rattus norvegicus; conditions: H9c2, 4 h
Trypanosoma cruzi [3] = assay: GSK_TCAKS: pIC50 Trypanosoma cruzi Imaging: Amastigotes/Cell. […] Cells were then washed once with PBS before infection. T. cruzi trypomastigotes, collected at days 5 to 8 after infection from LLC-MK2 parasite infected cultures, were allowed to swim out for 4h at 37C from a centrifuged pellet (2,500 rpm/10 min/room temperature). Trypomastigotes were then collected and counted in a CASY Cell Counter. Trypomastigotes, in supplemented DMEM, were added to H9c2 cultures in a multiplicity of infection of 1 and incubated for 18 h. Cells were washed once with PBS before incubation of the infected H9c2 monolayer with trypsin (Life-Technologies) to detach cells from the flask. Cells were counted in a CASY Cell Counter using a 150 um capillary and their density set at 5 * 10^4 cells per mL in supplemented assay DMEM. Infected H9c2 were dispensed into 384-well poly-lysine coated assay plates at 50uL per well using a Multidrop Combi dispenser. After seeding them, the plates were incubated at 37C, 5% CO2 for 72h. Cultures were then fixed and stained by addition of 50 uL of a solution containing 8% formaldehyde and 4 uM DRAQ5 DNA dye (BioStatus, UK) per well. […] Five images were collected per well for reliable statistical analysis. Automated image analysis was performed with a script developed on Acapella High Content Imaging and Analysis Software (PerkinElmer). Output: number of amastigotes per cell as infection level measurement.; type: functional, organism-based, Rattus norvegicus; conditions: H9c2, 4 h
Trypanosoma cruzi [4] = assay: as §1, with “H2C9” for “Trypanosoma cruzi”, “H9c2 Host Cardiomyocytes.” for “Infected Cells.”, “Number” for “percentage”, “H9c2 Host Cardiomyocytes nuclei to determine drug-related cytotoxicity.” for “infected cells per well as a second infection marker.”; type: functional, organism-based, Rattus norvegicus; conditions: H9c2, 4 h
Leishmania donovani [5] = assay: GSK_TCAKS: pIC50 Leishmania donovani viability assay using fluorescence intensity. Assay plates (1536-well) were prepared by adding 30nL per well of compound. For single shot assay, the final compound concentration was 5uM. […] Briefly, eGFP LdBOB axenic amastigotes were harvested, fixed and counted in a CASY cell counter (Roche-Applied Science). A final concentration of 1.5 * 10^5 cells per well were prepared in amastigote media containing 500 U/mL penicillin/streptomycin (Invitrogen) and 6uL was dispensed to each experimental well using a Multidrop Combi dispenser (Thermo Scientific). 6uL of assay media was dispensed to control columns used as reference for 100% compound response. Following incubation for 72 h at 37C, 5% CO2, 2 uL of resazurin was added to each well at a final concentration of 0.5 mM in phosphate buffered saline (PBS) with IGEPAL (Sigma-Aldrich), 0.05% (v/v).; type: functional, organism-based
Leishmania donovani [6] = assay: (§2) GSK_TCAKS: pIC50 Leishmania donovani Imaging: Infected Macrophages. Assay plates (384-well) were prepared by adding 250nL of compound to each well. For single shot assay, the final compound concentration was 5 uM. […] Automated image analysis was performed with a script developed on Acapella High Content Imaging and Analysis Software (PerkinElmer). Output: Percent of infected macrophage cells were reported for each well.; type: functional, organism-based, Homo sapiens; conditions: THP-1
Leishmania donovani [7] = assay: as §2, with “Amastigotes/Macrophages.” for “Infected Macrophages.”, “Average number” for “Percent”, “amastigotes per” for “infected”, “cell” for “cells”; type: functional, organism-based, Homo sapiens; conditions: THP-1
Leishmania donovani [8] = assay: as §2, with “THP-1 Host” for “Infected”, “THP-1 cell count” for “Percent of infected macrophage cells”; type: functional, organism-based, Homo sapiens
[9] = test system: Trypanosoma brucei brucei; assay: GSK_TCAKS: pIC50 Trypanosoma brucei viability assay using fluorescence intensity. Assay plates (1536-well) were prepared by dispensing 25nL of compound solution per well using an Echo acoustic dispenser (Labcyte).; type: functional, organism-based; conditions: Lister 427, 2 h
[10] = test system: Trypanosoma brucei brucei; assay: GSK_TCAKS: pIC50 Trypanosoma brucei viability assay using luminiscence. Assay plates (1536-well) were prepared. T. brucei cultures were harvested and counted in a CASY cell counter. A parasite suspension was prepared at a final concentration of 5 * 10^4 cells/mL in complete HMI9 medium and 6uL was dispensed to all wells containing compounds using a Multidrop Combi dispenser. 6uL of HMI9 media with 0.4% DMSO were dispensed to control columns. Plates were incubated for 24 h at 37C, 5% CO2 then tempered for 10 min at room temperature. ATP content was quantified by adding 4 uL of CellTiter-Glo Reagent (Promega) according to the manufacturer's instructions. Luminescence was measured using a ViewLux.; type: functional, organism-based; conditions: Lister 427, CASY
[11] = GSK_TCAKS: pIC50 HepG2 human cell line viability assay using luminiscence. […] Seeding density was checked to ensure that new mono-layers were not more than 50% confluent at the time of harvesting. Cell suspension was added to 500 mL of the same medium at a final density of 1.2 * 10^5 cells/mL. This cell suspension was dispensed (25 uL, 3000 cells per well) into 384-well clear-bottom plates using a Multidrop Combi dispenser. Prior to addition of the cell suspension, the screening compounds (250 nL) were pre-dispensed into the plates with an Echo liquid handler. Plates were incubated for 48 h at 37C, 5% CO2. After incubation, plates equilibrated at room temperature for 30 min before proceeding to develop the luminescent signal. The signal developer, CellTiter-Glo Reagent, was allowed to equilibrate at room temperature for 30 min and added to the plates (25uL per well) using a Multidrop Combi dispenser. Plates were left for 10 min at room temperature for stabilization and then read using a ViewLux.; type: toxicity, cell-based
NIH3T3 = assay: GSK_TCAKS: pIC50 NIH 3T3 cell line viability assay using luminiscence. Tissue culture surface treated assay plates (1536-well) were used. […] The 100% cells survival control was determined exposing the host-cells to a 0.5% DMSO concentration, whereas the 100% toxicity control was achieved by seeding the cells in presence of Amphotericin B at 50uM. Plates were incubated for four days at 37C, 5% CO2. The assay readout was developed by addition of 5uL of CellTiter-Glo Reagent following the manufacturer's instructions. Luminiscence was measured using a ViewLux.; type: functional, cell-based; conditions: Mus musculus, NIH3T3, 96 h
[12] = molecular target: Sterol 14-alpha demethylase (Trypanosoma cruzi (strain CL Brener), UniProt Q7Z1V1); assay: GSK_TCAKS: pIC50 CYP51 from Trypanosoma cruzi.; type: functional
Sterol 14-alpha demethylase, sequence (Q7Z1V1 whole entry): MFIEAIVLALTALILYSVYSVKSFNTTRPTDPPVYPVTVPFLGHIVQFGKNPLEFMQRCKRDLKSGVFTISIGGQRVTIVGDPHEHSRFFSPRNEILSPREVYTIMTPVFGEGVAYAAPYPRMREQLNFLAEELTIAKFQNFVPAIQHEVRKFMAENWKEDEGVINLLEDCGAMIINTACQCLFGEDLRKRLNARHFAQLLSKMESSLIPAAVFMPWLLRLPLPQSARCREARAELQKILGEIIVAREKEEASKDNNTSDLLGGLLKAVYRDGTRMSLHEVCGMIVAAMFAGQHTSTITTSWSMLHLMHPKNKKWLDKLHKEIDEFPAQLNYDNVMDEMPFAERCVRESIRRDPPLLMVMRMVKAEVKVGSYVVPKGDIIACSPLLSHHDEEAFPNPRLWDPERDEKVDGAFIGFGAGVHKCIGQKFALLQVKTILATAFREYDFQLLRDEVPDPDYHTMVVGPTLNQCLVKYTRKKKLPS

| Compound | IC50 (Trypanosoma cruzi [1]) [µM] | IC50 (Trypanosoma cruzi [2]) [µM] | IC50 (Trypanosoma cruzi [3]) [µM] | IC50 (Trypanosoma cruzi [4]) [µM] | IC50 (Leishmania donovani [5]) [µM] | IC50 (Leishmania donovani [6]) [µM] | IC50 (Leishmania donovani [7]) [µM] | IC50 (Leishmania donovani [8]) [µM] | IC50 [9] [µM] | IC50 [10] [µM] | IC50 at 48 h [11] [µM] | IC50 (NIH3T3) [µM] | IC50 [12] [µM] |
| --- | --- | --- | --- | --- | --- | --- | --- | --- | --- | --- | --- | --- | --- |
| CN(C)Cc1ccc(-c2ccc(S(=O)(=O)NCC3CCCO3)c(F)c2)cc1 (stereo unspecified) | 1.26 | 5.01 | 2 | > 63.1 | > 63.1 | > 63.1 | > 63.1 | > 63.1 | 25.1 | 39.8 | > 126 | 15.8 | 39.8 |
| Cc1ccc(NC(=O)c2ccc(Cl)c(NC(=O)c3ccc([N+](=O)[O-])cc3)c2)cc1 | 0.631 | 0.501 | 0.2 | > 50.1 | > 50.1 | > 50.1 | > 50.1 | > 50.1 | 7.94 | 15.8 | > 100 | 20 | > 100 |
| Clc1ccc(C(CC2CCCCO2)Cn2cncn2)c(Cl)c1 (stereo unspecified) | 0.398 | 1.26 | 1 | > 50.1 | 25.1 | > 50.1 | > 50.1 | > 50.1 | > 39.8 | > 39.8 | > 100 | 39.8 | 0.251 |
| O=[N+]([O-])c1ccc(C2=NCCNC(c3ccccc3)=C2)cc1.[O-][Cl+3]([O-])([O-])O | 0.501 | 1 | 0.251 | 31.6 | > 50.1 | 20 | 7.94 | 39.8 | 6.31 | > 12.6 | 50.1 | 7.94 | 50.1 |
| CCCCn1nnnc1CSc1nc(C)cc(C)c1C#N | 0.316 | 0.2 | 0.1 | > 50.1 | 1.26 | 3.98 | 3.16 | > 50.1 | > 39.8 | > 39.8 | > 100 | > 50.1 | 50.1 |
| O=C(COc1ncnc2cc([N+](=O)[O-])ccc12)NC(=O)NC1CCCCC1 | 1.26 | 1 | 0.501 | > 50.1 | > 50.1 | > 50.1 | > 50.1 | > 50.1 | 6.31 | > 39.8 | > 100 | > 50.1 | > 100 |
| CC(=O)Nc1ccc(-c2noc(CC3CCCN(Cc4cccc(F)c4C)C3)n2)cc1 (stereo unspecified) | 1 | 2 | 1.26 | 31.6 | 39.8 | 31.6 | 12.6 | > 50.1 | 20 | 25.1 | > 100 | 25.1 | > 100 |
